Assay results reported in article PMC8864869, “A short peptide derived from pigment epithelial-derived factor exhibits an angioinhibitory effect” (BMC Ophthalmology, 2022).

Key:
[1] = tested on: VEGF-induced corneal neovascularization; test: Mouse corneal micropocket assay; type: in vivo; details: C57BL/6 mice, pellet with 200 ng VEGF + 2.5 μg 7-mer, day 7
Protocol: The assay was performed according to procedures described previously. Briefly, corneal micropockets were created in 6-week-old C57BL/6 mice with the needle of 1-ml injector. A micropellet of sucrose aluminum sulfate and hydron polymer containing 200 ng VEGF, with or without 2.5 μg 7-mer peptide, was delivered into each corneal pocket. Eyes were photographed by a slit-lamp biomicroscope on day 7 after micropellet implantation. Ingrowth of the blood vessels into the avascular cornea, towards the pellet, was scored as a positive response. The results are reported as the fraction of positive corneas of the total implanted.
(§1) Fig. 6 The effect of the 7-mer on VEGF-induced microvessel sprouting of aortic ring and corneal neovascularization. a Rat aortic ring assay. Photomicrographs of aortic ring explants after treatment for 5 days (magnification × 40). Sprouting was evaluated on a scale from 0 (no sprouts) to 3 (profuse sprouting). There was no sprouting of vessels from ex vivo aortic rings embedded in Matrigel without LSGS or VEGF. b The 7-mer inhibits VEGF-induced corneal angiogenesis in C57BL/6 mice. Representative corneas and final scoring determining the number of positive corneas per total implantations. […]

rat aortic ring = test: Rat aortic ring assay; details: 100 μM 7-mer, 5 days
Protocol: Thoracic aortas were removed from euthanized 10-week-old male Sprague Dawley rats and gently stripped of periaortic fibroadipose tissue. Aortas were sectioned into ~ 1 mm length rings, being manipulated in Medium 200. Matrigel (120 μl) mixed with 24 μl LSGS, 72 μl medium, 200 ng/ml VEGF and 100 μM 7-mer was used to embed the aortic ring and then polymerized in 12-well plates (37 °C for 30 min). Subsequently, 1 ml culture medium supplemented with 100 units/ml penicillin, and […] was added. The cultures were propagated at 37 °C in a humidified incubator for up to 5 days. Sprouts were recorded using an inverted microscope platform (Leica DMI6000B) with bright-field optics. Each ring was scored by three independent observers on a scale 0–3, depending on the degree of vessel sprouting observed (0 = no sprouting, 3 = profuse sprouting).
as §1, with “mice.” for “mice. Representative corneas and final scoring determining the number of positive corneas per total implantations.”

7-mer: PEDF Asp64-Ser70, N-acetylated, C-amidated (Ac-DLYRVRS-NH2; UniProt P36955 64-70, looked up, fragment)
VEGF-induced neovessels in the corneas [1]: prevented by the 7-mer | Positive Corneas /Total ([1]; vehicle 10/12): 0/8 | VEGF-induced outgrowth of sprouts from aortic rings (rat aortic ring; 200 ng/ml VEGF, P = 0.001): this outgrowth was suppressed | sprouts of aortic rings exposed to LSGS and VEGF (rat aortic ring; LSGS + 200 ng/ml VEGF): blocked by the 7-mer
